The results in this text go back to patent US11691989B2, “Macrocyclic indoles as Mcl-1 inhibitors” (ASCENTAGE PHARMA (SUZHOU) CO., LTD., priority 2018, dated 2023).

SMILES strings stand for the structures. pIC50: −log10 of the molar value.

Data set [1] can be described thus: Microsome clearance assay, mouse. Type of data set: in vitro ADME. The note with it: 0.5 mg/ml protein, 1 mM NADPH, 60 minutes; for Mouse Liver Microsome Clint (μL/min/mg protein): mouse liver microsomes, 5 μM; for microsomal CLint at 5 μM: male, CD-1, mouse, pooled liver microsomes, pH 7.4, mouse liver microsomes, read-out: Mouse Liver Microsome Clint (μL/min/mg protein). As for the experimental part:
(§1) Representative Compounds of the Disclosure were tested in a microsome clearance assay. Pooled liver microsomes (20 mg/ml) from human, male Wister rat, and male CD-1 mouse were obtained from BD Bioscience (Franklin Lakes, N.J. USA). Incubation reaction mixtures contained a final concentration of 0.1M sodium phosphate buffer (pH 7.4), 0.5 mg/ml microsomal protein, 5 μM of test sample and 1 mM NADPH in a total volume of 400 μl. The incubations were done for 60 minutes and 300 μl of the mixtures was transferred to 150 μl of ice cold methanol to terminate reactions. After vortexes for 3 minutes and centrifuged at 4000 rpm at 4° C. for 10 minutes, the clear supernatant was used directly for analysis. The samples were analyzed by Applied Biosystems API 3200 Q TRAP LC/MS/MS system using electrospray ionization mode.
(In general: Liver microsomes are a subcellular fraction often used to study metabolism.)

Data set [2] concerns OPM-2 cells. Briefly: Cell viability assay (OPM-2 cells), CCK-8. Type of data set: cell-based. To be noted: 5% FBS. As for the experimental part: Cell Viability Assay (OPM-2 cells)
OPM-2 cells were obtained from Deutsche Sammlung von Mikroorganismen and Zellkulturen GmbH (DSMZ). Cells were maintained in the recommended culture medium with 10% FBS at 37° C. and an atmosphere of 5% CO2.
The effect of representative Compounds of the Disclosure on cell viability was determined using Cell Counting Kit-8 (CCK-8) assay (Shanghai Life iLab Bio Technology) according to the manufacturer's instructions. Each tested compound was serially diluted in culture medium, 100 μL of the compound dilution was added into 96-well plates. 100 μL of an OPM-2 cell suspension (20000 cells/well) in culture medium were seeded into the corresponding well of the plate and the cells were incubated at 37° C. in an atmosphere of 5% CO2 for 24 hours. In the next day, 20 μL of CCK-8 solution was added to each well of the plate and incubated for 4 hours.
The plates were read at 450 nm on the microplate spectrophotometer (SpectraMax plus 384, Molecular devices). The readings were normalized to the vehicle cells, and the IC50 was calculated by nonlinear regression analysis using GraphPad Prism 6 software.

Data set [3] is described as follows: Microsome clearance assay, rat. Type of data set: in vitro ADME. To be noted: 0.5 mg/ml protein, 1 mM NADPH, 60 minutes; for Rat Liver Microsome Clint (μL/min/mg protein): rat liver microsomes, 5 μM; for microsomal CLint at 5 μM: male, Wister, rat, pooled liver microsomes, pH 7.4, rat liver microsomes, read-out: Rat Liver Microsome Clint (μL/min/mg protein). On the procedure:
as §1

Data set [4] addresses Mcl-1 protein (residues 171-323) (Homo sapiens (Human), UniProt Q07820). Briefly: Inhibition of Mcl-1 by fluorescence polarization (FP) competitive binding assay with FAM-Bid tracer. The note with it: 2 nM FAM-Bid, 20 nM Mcl-1, 30 min, read-out: Mc1-1 (FP). On the procedure:
Inhibition of Mcl-1 by fluorescence polarization (FP) assay.
The method used a fluorescein labelled peptide (FAM-Bid) which binds to the Mcl-1 protein leading to an increased anisotropy measured in milli-polarization (mP) values using a plate reader.
A 10-points serial dilution of each compound was prepared in DMSO and 5 μL solution was transferred into flat bottomed, 96-well back plate (final DMSO concentration 5%). 120 μL of Buffer (PBS, 0.01% BGG (Sigma Cat. #SRE0011), 0.01% Triton X-100), containing the Fluorescein labelled peptide (Final concentration 2 nM) and Mcl-1 protein (final concentration 20 nM) was then added. […] 10-points dose response curves were plotted with GraphPad software using Sigmoidal Dose-Response Model and the IC50 values were determined by nonlinear regression fitting of the competition curves.

Data set [5] can be described thus: Microsome clearance assay, human. Type of data set: in vitro ADME. To be noted: 0.5 mg/ml protein, 1 mM NADPH, 60 minutes; for Human Liver Microsome Clint (μL/min/mg protein): human liver microsomes, 5 μM; for microsomal CLint at 5 μM: human, pooled liver microsomes, pH 7.4, human liver microsomes, read-out: Human Liver Microsome Clint (μL/min/mg protein). As for the experimental part:
as §1

The test system of data set [6] is NCI-H929 cells. As to the kind of experiment: Cell viability assay (NCI-H929 cells), CCK-8. It counts as cell-based. The note with it: 5% FBS. As for the experimental part:
Cell Viability Assay (NCI-H929 cells)
NCI-H929 cells were obtained from American Type Culture Collection (ATCC). Cells were maintained in the recommended culture medium (RPMI 1640) with 10% FBS and 0.05 mM BME at 37° C. and an atmosphere of 5% CO2.
The effect of Compounds on cell viability was determined using Cell Counting Kit-8 (CCK-8) assay according to the manufacturer's instructions. 95 μL of NCI-H929 cell suspension (20000 cells/well) in culture medium were seeded into 96-well plates and cultured 4 hrs. Each tested compound was serially diluted in DMSO, then 5 μL of the compound or DMSO was diluted in 95 μL medium once more. At last, 5 μL of the compound dilution was added to the corresponding well of the cell plate. After the addition of the tested compound, the cells were incubated at 37° C. in an atmosphere of 5% CO2 for 24 hrs. At the end, 10 μL of CCK-8 solution was added to each well of the plate and incubated for 1-4 hours. The plates were read at 450 nm on the microplate reader (BioTek Synergy 1MF). The readings were normalized to the vehicle cells, and the IC50 was calculated by nonlinear regression analysis using GraphPad Prism 6 software.

Mcl-1 protein (residues 171-323), sequence (Q07820 171-323): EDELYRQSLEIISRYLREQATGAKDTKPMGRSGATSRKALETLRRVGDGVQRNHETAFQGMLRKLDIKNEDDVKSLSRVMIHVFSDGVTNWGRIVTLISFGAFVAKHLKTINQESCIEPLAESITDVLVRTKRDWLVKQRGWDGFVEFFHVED

In the case of `Cc1c(C(=O)O)n2c3ccc(Cl)c(c13)-c1c(nn(C)c1C)CSCc1cc(n(C)n1)CSc1cc(c3ccc(F)cc3c1)OCCC2` (atropisomer, axis not shown) [Cpd. No. 16, (S)-(Z)-1^5-chloro-9^6-fluoro-1^3,2^1,2^5,6^1-tetramethyl-1^111,2^1H,6^1H-10-oxa-4,8-dithia-1(4,1)-indola-2(4,3),6(3,5)-dipyrazola-9(3,1)-naphthalenacyclotridecaphane-1^2-carboxylic acid], the “Mouse Liver Microsome Clint (μL/min/mg protein)” value in data set [1] was found to be 135 μL/min/mg protein. Also, the pIC50 in data set [2] (24 hours) was 5.39; in data set [4], 5.49; in data set [6] (24 hrs), 5.65. Besides, the “Rat Liver Microsome Clint (μL/min/mg protein)” value in data set [3] worked out at 64.6 μL/min/mg protein. Moreover, the “Human Liver Microsome Clint (μL/min/mg protein)” value in data set [5] was 23.4 μL/min/mg protein.

On to `Cc1c(C(=O)O)n2c3ccc(Cl)c(c13)-c1c(nn3c1COCC3)CN(CCNS(C)(=O)=O)Cc1cc(n(C)n1)CSc1cc(c3ccc(F)cc3c1)OCCC2` [Cpd. No. 51, (Z)-1^5-chloro-9^6-fluoro-1^3, 6^1-di methyl-4-(2-(methylsulfonamido)ethyl)-26,27-dihydro-1^1H,2^4H,6^1H-10-oxa-8-thia-4-aza-2(3,2)-pyrazolo[5,1-c][1,4]oxazina-1(4,1)-indola-6(3,5)-pyrazola-9(3,1)-naphthalenacyclotridecaphane-1^2-carb oxylic acid], for which the results for the microsomal CLint at 5 μM in data set [1], in data set [3] and in data set [5] were 30.6 µL/min/mg, 15 µL/min/mg and 7.4 µL/min/mg, respectively. The pIC50 in data set [2] (Homo sapiens, OPM-2, 24 h) was 5.23; in data set [4], 7.77; in data set [6] (Homo sapiens, NCI-H929, 24 h), 5.81.

On to `Cc1c(C(=O)O)n2c3ccc(Cl)c(c13)-c1c(nn(C)c1C)CN(S(C)(=O)=O)Cc1cc(n(C)n1)CSc1cc(c3ccc(F)cc3c1)OCCC2` [Cpd. No. 34, (S)-(Z)-1^5-chloro-9^6-fluoro-1^3,2^1,2^5,6^1-tetramethyl-4-(methylsulfonyl)-1^1H,2^1H, 6^1H-10-oxa-8-thia-4-aza-1(4,1)-indola-2(4,3),6(3,5)-dipyrazola-9(3,1)-naphthalenacyclotridecaphane-1^2-carboxylate], for which, in data set [1], the “Mouse Liver Microsome Clint (μL/min/mg protein)” value was 110 μL/min/mg protein. The pIC50 in data set [2] (24 hours) was below 5.00; in data set [4], 5.59; in data set [6] (24 hrs), 5.07. Also, the “Rat Liver Microsome Clint (μL/min/mg protein)” value in data set [3] was determined as 13.0 μL/min/mg protein. Besides, in data set [5], the “Human Liver Microsome Clint (μL/min/mg protein)” value is recorded as below 2.8 μL/min/mg protein.

In the case of `CCc1c(C(=O)O)n2c3ccc(Cl)c(c13)-c1c(nn(C)c1C)CSCc1cc(n(C)n1)CSc1cc(c3ccccc3c1)OCCC2` [Cpd. No. 8, (Z)-1^5-chloro-1^3-ethyl-2^1,2^5,6^1-trimethyl-1^1H,2^1H,6^111-10-oxa-4,8-dithia-1(4,1)-indola-2(4,3),6(3,5)-dipyrazola-9(3,1)-naphthalenacyclotridecaphane-1^2-carboxylic acid], the microsomal CLint at 5 μM in data set [1] came out at 325 µL/min/mg; in data set [3] it was 299 µL/min/mg; in data set [5] it was 86.8 µL/min/mg. Moreover, the pIC50 in data set [2] (Homo sapiens, OPM-2, 24 h) is 6.57; in data set [4], 7.68; in data set [6] (Homo sapiens, NCI-H929, 24 h), 7.15.

Take `Cc1c(C(=O)O)n2c3ccc(Cl)c(c13)-c1c(nn3c1COCC3)CSCc1cc(n(C)n1)CSc1cc(c3ccccc3c1)OCCC2` [Cpd. No. 1, (Z)-1^5-chloro-1^3,6^1-dimethyl-2^6,2^7-dihydro-1^1H,2^4H,6^1H-10-oxa-4,8-dithia-2(3,2)-pyrazolo[5,1-c][1,4]oxazina-1(4,1)-indola-6(3,5)-pyrazola-9(3,1)-naphthalenacyclotridecaphane-1^2-carboxylic acid]: the microsomal CLint at 5 μM was 49 µL/min/mg in data set [1], 34.4 µL/min/mg in data set [3] and 35.2 µL/min/mg in data set [5]. In addition, the pIC50 in data set [2] (Homo sapiens, OPM-2, 24 h) is 5.81; in data set [4], 8.15; in data set [6] (Homo sapiens, NCI-H929, 24 h), 6.78.
